# Results reported in US10718006B2, “Methods for detecting beta-lactamase-producing bacteria” (priority 2015, dated 2020).
# How the values were obtained:
# Format in all cases: cell-based
# K. oxytoca strain [1] = assay: Electrochemical assay with substrate HMRZ-86, liquid cultures; settings: K. oxytoca 11779, Low-level penicillinase; liquid culture, 30 min with HMRZ-86
# Protocol: Each cryopreserved strain is cultured in 10 mL of LB medium at 37° C. until the stationary phase is obtained.
# A volume of 50 μL of culture liquid is incubated in the presence of 50 μL of a solution of HMRZ-86 at 0.5 mM in PBS at 37° C. with stirring for 30 min. 40 μL of the reaction mixture is taken and transferred onto the surface of a screen-printed carbon sensor (Dropsens, DRP-110) connected beforehand to a STAT 8000P portable potentiostat (Dropsens) with power supply from the computer's USB port and controlled by the DropView 8400 software. Linear voltammetry measurements are carried out by linear potential scanning from −0.1 V to 1.2 V at a rate of 50 mV·s^−1. The peak current appearing in the potential range +0.2 to +0.55 V vs. Ag/AgCl, associated with hydrolysis of the beta-lactam ring of HMRZ-86, is selected as the analytical response. If the intensity of the peak (i) has a value above 500 nA, the sample contains a strain capable of degrading the C3Gs.
# (§1) The electrochemical method of the invention was applied to analysis of a panel of 40 strains producing various β-lactamases and was compared with the R-Lacta™ Test (Biorad), the principle of which is based on qualitative colorimetric detection of the C3G-resistant strains. The results presented in Table 7 were obtained after 30 min of incubation of the bacteria with the substrate HMRZ-86 for both methods. Based on the interpretation of the results proposed by the supplier, the R-Lacta™ Test allows identification of the C3G-resistant strains with a level of agreement of 68%, whereas a level of agreement of 95% was obtained with the electrochemical method of the invention. In contrast to colorimetry, amperometry offers the advantage of measuring a numerical value of current which, on the one hand, avoids any subjective interpretation of the result (intermediate colour), and on the other hand allows traceability of the result.
# (§2) Table 7: Comparison of the results obtained with the electrochemical method of the invention for liquid cultures with those obtained with the R-Lacta™ Test implemented according to the supplier's recommendations with isolated colonies. In both cases, the readings were taken after incubation with the substrate HMRZ-86 for 30 min.
# C. freundii strain = assay: β-Lacta Test (colorimetric, HMRZ-86), isolated colonies; parameters: key: Yellow or orange colour: negative result (absence of C3G-resistant strains); Orange: Yellow or orange colour: negative result (absence of C3G-resistant strains); Red colour: positive result (presence of C3G-resistant strains); settings: C. freundii 11745, Inducible cephalosporinase, 30 min with HMRZ-86
# Protocol: as §1, §2
# E. aerogenes strains = assay: as above; parameters: key: Yellow or orange colour: negative result (absence of C3G-resistant strains); Orange: Yellow or orange colour: negative result (absence of C3G-resistant strains); Red colour: positive result (presence of C3G-resistant strains)
# Protocol: as §1, §2
# E. cloacae strains = assay: as above; parameters: key: Yellow or orange colour: negative result (absence of C3G-resistant strains); Orange: Yellow or orange colour: negative result (absence of C3G-resistant strains); Red colour: positive result (presence of C3G-resistant strains); settings: 30 min with HMRZ-86
# Protocol: as §1, §2
# [2] = test system: E. coli strains producing various β-lactamases; assay: as above; parameters: key: Yellow or orange colour: negative result (absence of C3G-resistant strains); Orange: Yellow or orange colour: negative result (absence of C3G-resistant strains); Red colour: positive result (presence of C3G-resistant strains)
# Protocol: as §1, §2
# K. oxytoca strain [3] = assay: as above; parameters: key: Yellow or orange colour: negative result (absence of C3G-resistant strains); Orange: Yellow or orange colour: negative result (absence of C3G-resistant strains); Red colour: positive result (presence of C3G-resistant strains); settings: K. oxytoca 11779, Low-level penicillinase, 30 min with HMRZ-86
# Protocol: as §1, §2
# K. pneumoniae strains = assay: as above; parameters: key: Yellow or orange colour: negative result (absence of C3G-resistant strains); Orange: Yellow or orange colour: negative result (absence of C3G-resistant strains); Red colour: positive result (presence of C3G-resistant strains)
# Protocol: as §1, §2
# P. aeruginosa strains = assay: as above; parameters: key: Yellow or orange colour: negative result (absence of C3G-resistant strains); Orange: Yellow or orange colour: negative result (absence of C3G-resistant strains); Red colour: positive result (presence of C3G-resistant strains); settings: 30 min with HMRZ-86
# Protocol: as §1, §2
# P. mirabilis strains = assay: as above; parameters: key: Yellow or orange colour: negative result (absence of C3G-resistant strains); Orange: Yellow or orange colour: negative result (absence of C3G-resistant strains); Red colour: positive result (presence of C3G-resistant strains); settings: 30 min with HMRZ-86
# Protocol: as §1, §2
# S. marcescens strain = assay: as above; parameters: key: Yellow or orange colour: negative result (absence of C3G-resistant strains); Orange: Yellow or orange colour: negative result (absence of C3G-resistant strains); Red colour: positive result (presence of C3G-resistant strains); settings: S. marcescens 11787, Hyperproduced cephalosporinase, 30 min with HMRZ-86
# Protocol: as §1, §2
compound,measurement,setting,value
"CC(C)(ON=C(C(=O)N[C@@H]1C(=O)N2C(C(=O)O)=C(C=Cc3ccc([N+](=O)[O-])cc3[N+](=O)[O-])CS[C@H]12)c1csc(N)n1)C(=O)O.O=C(O)C(F)(F)F [HMRZ-86, (6R,7R)-trifluoroacetate 7-[[2-(2-amino-4-thiazolyl)-2-[(1-carboxy-1-methylethoxy)imino]acetyl]amino]-1-aza-3-[2-(2,4-dinitrophenyl)ethenyl]-8-oxo-5-thiabicyclo[4.2.0]oct-2-ene-2-carboxylic acid]",Electrochemical assay Intensity,K. oxytoca strain [1],412 nA
same,β-Lacta ™ Test Colour,C. freundii strain,Yellow
same,β-Lacta ™ Test Colour,"E. aerogenes strains; E. aerogenes 11772, Inducible cephalosporinase, 30 min with HMRZ-86",Yellow
same,β-Lacta ™ Test Colour,"E. aerogenes strains; E. aerogenes 11775, Hyperproduced cephalosporinase, 30 min with HMRZ-86",Yellow
same,β-Lacta ™ Test Colour,"E. aerogenes strains; E. aerogenes 11796, ESBL TEM 24, 30 min with HMRZ-86",Orange
same,β-Lacta ™ Test Colour,"E. cloacae strains; E. cloacae 11784, Hyperproduced cephalosporinase",Orange
same,β-Lacta ™ Test Colour,"E. cloacae strains; E. cloacae 11790, Hyperproduced cephalosporinase",Orange
same,β-Lacta ™ Test Colour,"E. cloacae strains; E. cloacae 11794, Hyperproduced cephalosporinase",Orange
same,β-Lacta ™ Test Colour,"[2]; E. coli 11746, Hyperproduced penicillinase, 30 min with HMRZ-86",Yellow
same,β-Lacta ™ Test Colour,"[2]; E. coli 11748, Inducible cephalosporinase, 30 min with HMRZ-86",Yellow
same,β-Lacta ™ Test Colour,"[2]; E. coli 11755, Carbapenemase OXA-48 - CTX-M, 30 min with HMRZ-86",Red
same,β-Lacta ™ Test Colour,"[2]; E. coli 11757, Carbapenemase OXA-48, 30 min with HMRZ-86",Orange
same,β-Lacta ™ Test Colour,"[2]; E. coli 11765, Hyperproduced penicillinase, 30 min with HMRZ-86",Yellow
same,β-Lacta ™ Test Colour,"[2]; E. coli 11766, Inducible cephalosporinase, 30 min with HMRZ-86",Yellow
same,β-Lacta ™ Test Colour,"[2]; E. coli 11771, Hyperproduced penicillinase, 30 min with HMRZ-86",Yellow
same,β-Lacta ™ Test Colour,"[2]; E. coli 11776, Inducible cephalosporinase, 30 min with HMRZ-86",Yellow
same,β-Lacta ™ Test Colour,"[2]; E. coli 11780, Hyperproduced penicillinase, 30 min with HMRZ-86",Yellow
same,β-Lacta ™ Test Colour,"[2]; E. coli 11781, Low-level penicillinase, 30 min with HMRZ-86",Yellow
same,β-Lacta ™ Test Colour,"[2]; E. coli 11791, Hyperproduced cephalosporinase, 30 min with HMRZ-86",Yellow
same,β-Lacta ™ Test Colour,"[2]; E. coli 11810, ESBL CTX-M-1, 30 min with HMRZ-86",Red
same,β-Lacta ™ Test Colour,"[2]; E. coli 11817, ESBL CTX-M-2, 30 min with HMRZ-86",Red
same,β-Lacta ™ Test Colour,"[2]; E. coli 11818, ESBL CTX-M-1, 30 min with HMRZ-86",Red
same,β-Lacta ™ Test Colour,"[2]; E. coli 11820, ESBL SHV-12, 30 min with HMRZ-86",Red
same,β-Lacta ™ Test Colour,"[2]; E. coli 11828, ESBL CTX-M-27, 30 min with HMRZ-86",Red
same,β-Lacta ™ Test Colour,"[2]; E. coli 11833, ESBL CTX-M-9, 30 min with HMRZ-86",Red
same,β-Lacta ™ Test Colour,"[2]; E. coli 11834, ESBL TEM-12, 30 min with HMRZ-86",Yellow
same,β-Lacta ™ Test Colour,"[2]; E. coli 11863, ESBL CTX-M-14, 30 min with HMRZ-86",Red
same,β-Lacta ™ Test Colour,"[2]; E. coli K12, Beta-lactamase negative, 30 min with HMRZ-86",Yellow
same,β-Lacta ™ Test Colour,K. oxytoca strain [3],Yellow
same,β-Lacta ™ Test Colour,"K. pneumoniae strains; K. pneumoniae 11754, Carbapenemase OXA-48 - CTX-M, 30 min with HMRZ-86",Red
same,β-Lacta ™ Test Colour,"K. pneumoniae strains; K. pneumoniae 11762, Carbapenemase OXA-48, 30 min with HMRZ-86",Orange
same,β-Lacta ™ Test Colour,"K. pneumoniae strains; K. pneumoniae 11770, Low-level penicillinase, 30 min with HMRZ-86",Yellow
same,β-Lacta ™ Test Colour,"K. pneumoniae strains; K. pneumoniae 11812, ESBL CTX-M-15, 30 min with HMRZ-86",Red
same,β-Lacta ™ Test Colour,"K. pneumoniae strains; K. pneumoniae 11839, Carbapenemase KPC-2, 30 min with HMRZ-86",Red
same,β-Lacta ™ Test Colour,"K. pneumoniae strains; K. pneumoniae 11842, Carbapenemase NDM-1, 30 min with HMRZ-86",Red
same,β-Lacta ™ Test Colour,"P. aeruginosa strains; P. aeruginosa 11774, Hyperproduced cephalosporinase",Orange
same,β-Lacta ™ Test Colour,"P. aeruginosa strains; P. aeruginosa 11778, Hyperproduced cephalosporinase",Yellow
same,β-Lacta ™ Test Colour,"P. aeruginosa strains; P. aeruginosa 11782, Hyperproduced cephalosporinase",Yellow
same,β-Lacta ™ Test Colour,"P. mirabilis strains; P. mirabilis 11747, Beta-lactamase negative",Yellow
same,β-Lacta ™ Test Colour,"P. mirabilis strains; P. mirabilis 11768, Low-level penicillinase",Yellow
same,β-Lacta ™ Test Colour,S. marcescens strain,Orange
